Measurements as given in ChEMBL document CHEMBL1201862, “PubChem BioAssay data set” (2004).
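Five concentrations, 48 hours, 96-well plates. At the GI50, growth is halved.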 The source made the active and inactive calls. No stated cut-off is given here; in the data, active = GI50 up to about 1.1 µM and inactive = higher.

Legend:
Assay in all cases: NCI tumour cell line growth inhibition, 48 h
SNB-78 = system: SNB-78
K562 = system: K562
SW-620 = system: SW-620
ACHN = system: ACHN
NCI-H460 = system: NCI-H460
Malme-3M = system: Malme-3M
SNB-19 = system: SNB-19
IGROV-1 = system: IGROV-1
RPMI-8226 = system: RPMI-8226
M14 = system: M14
HOP-18 = system: HOP-18
U-251 = system: U-251
HCC 2998 = system: HCC 2998
UACC-257 = system: UACC-257
RXF 631 = system: RXF 631
HT-29 = system: HT-29
DMS-273 = system: DMS-273
SK-MEL-2 = system: SK-MEL-2
HOP-92 = system: HOP-92
CAKI-1 = system: CAKI-1
SF-539 = system: SF-539
SK-OV-3 = system: SK-OV-3
HOP-62 = system: HOP-62
SF-295 = system: SF-295
CCRF-CEM = system: CCRF-CEM
EKVX = system: EKVX
NCI-H522 = system: NCI-H522
LOX IMVI = system: LOX IMVI
A549 = system: A549
MOLT-4 = system: MOLT-4
NCI-H226 = system: NCI-H226
UO-31 = system: UO-31
HCT-116 = system: HCT-116
M19-MEL = system: M19-MEL
HL-60 = system: HL-60
UACC-62 = system: UACC-62
DLD-1 = system: DLD-1
SF-268 = system: SF-268
OVCAR-3 = system: OVCAR-3
RXF 393 = system: RXF 393
OVCAR-5 = system: OVCAR-5
KM-20L2 = system: KM-20L2
LXFL 529 = system: LXFL 529
SK-MEL-5 = system: SK-MEL-5
TK-10 = system: TK-10
HCT-15 = system: HCT-15
NCI-H23 = system: NCI-H23
DMS-114 = system: DMS-114
OVCAR-8 = system: OVCAR-8
SN12C = system: SN12C
XF498 = system: XF498

CC(C)(C)C1(c2ccc(C3(c4ccccc4)Oc4ccccc4S3)[nH]2)Oc2ccccc2S1 (stereo unspecified)
GI50 (SNB-78): > 100 µM (inactive) | GI50 (K562): > 100 µM (inactive) | GI50 (SW-620): > 100 µM (inactive) | GI50 (ACHN): > 100 µM (inactive) | GI50 (NCI-H460): > 100 µM (inactive) | GI50 (Malme-3M): > 100 µM (inactive) | GI50 (SNB-19): > 100 µM (inactive) | GI50 (IGROV-1): > 100 µM (inactive) | GI50 (RPMI-8226): 96.2 µM (inactive) | GI50 (M14): > 100 µM (inactive) | GI50 (HOP-18): > 100 µM (inactive) | GI50 (U-251): > 100 µM (inactive) | GI50 (HCC 2998): > 100 µM (inactive) | GI50 (UACC-257): 92.9 µM (inactive) | GI50 (RXF 631): > 100 µM (inactive) | GI50 (HT-29): > 100 µM (inactive) | GI50 (DMS-273): > 100 µM (inactive) | GI50 (SK-MEL-2): > 100 µM (inactive) | GI50 (HOP-92): 26.8 µM (inactive) | GI50 (CAKI-1): > 100 µM (inactive) | GI50 (SF-539): > 100 µM (inactive) | GI50 (SK-OV-3): > 100 µM (inactive) | GI50 (HOP-62): > 100 µM (inactive) | GI50 (SF-295): > 100 µM (inactive) | GI50 (CCRF-CEM): > 100 µM (inactive) | GI50 (EKVX): > 100 µM (inactive) | GI50 (NCI-H522): > 100 µM (inactive) | GI50 (LOX IMVI): > 100 µM (inactive) | GI50 (A549): > 100 µM (inactive) | GI50 (MOLT-4): 65.5 µM (inactive) | GI50 (NCI-H226): 55 µM (inactive) | GI50 (UO-31): 90.4 µM (inactive) | GI50 (HCT-116): > 100 µM (inactive) | GI50 (M19-MEL): > 100 µM (inactive) | GI50 (HL-60): > 100 µM (inactive) | GI50 (UACC-62): > 100 µM (inactive) | GI50 (DLD-1): > 100 µM (inactive) | GI50 (SF-268): > 100 µM (inactive) | GI50 (OVCAR-3): > 100 µM (inactive) | GI50 (RXF 393): > 100 µM (inactive) | GI50 (OVCAR-5): > 100 µM (inactive) | GI50 (KM-20L2): > 100 µM (inactive) | GI50 (LXFL 529): > 100 µM (inactive) | GI50 (SK-MEL-5): > 100 µM (inactive) | GI50 (TK-10): > 100 µM (inactive) | GI50 (HCT-15): > 100 µM | GI50 (NCI-H23): > 100 µM (inactive) | GI50 (DMS-114): > 100 µM (inactive) | GI50 (OVCAR-8): > 100 µM (inactive) | GI50 (SN12C): > 100 µM (inactive) | GI50 (XF498): 32.5 µM (inactive)
